Some test systems named below: ACHN; BT-549; CAKI-1; CCRF-CEM; COLO 205; DU-145; HCC 2998; HCT-116; HOP-62; Hs-578T; LOX IMVI; M14; MDA-N; MOLT-4; NCI-H460; OVCAR-4; OVCAR-5; SF-268; SR; UACC-257.
Assay in all cases: DTP human tumour cell line panel, 48 h

Structures are written as SMILES.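 Assay format: 96-well plates, 48-hour exposure. GI50 = concentration required for 50% inhibition of growth.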 Active and inactive are the calls of the source. No stated cut-off is given here; in the data, active = GI50 up to about 1.1 µM and inactive = higher. A value given as a limit tells only on which side of the number the result lay.

`C[C@H](CCc1nc(C#N)c(N)o1)[C@H]1CC[C@H]2[C@@H]3[C@@H](O)CC4C[C@@H](O)CC[C@]4(C)[C@H]3C[C@@H](O)[C@]12C` (stereo not given in full): the GI50 – broadly, the concentration giving 50% growth inhibition – in the experiment with ACHN was 26.4 µM (inactive); in the experiment with BT-549 it was 9.86 µM (inactive); in the experiment on CAKI-1, 30.5 µM (inactive); with CCRF-CEM it was 0.498 µM (active); in the experiment on COLO 205, 18.2 µM (inactive); with DU-145, 28.1 µM (inactive). In addition, the GI50 is 19.1 µM (inactive) in the experiment on HCC 2998; 21.4 µM (inactive) with HCT-116; 26.5 µM (inactive) with HOP-62; 20.5 µM (inactive) in the experiment with Hs-578T; 12.1 µM (inactive) in the experiment with LOX IMVI; 29 µM (inactive) with M14. For the same compound, the GI50 with MDA-N was 25.9 µM (inactive); with MOLT-4, 15 µM (inactive); with NCI-H460, 21.9 µM (inactive); with OVCAR-4, 1.99 µM (inactive); with OVCAR-5 it was 23.3 µM (inactive); in the experiment with SF-268, 20.2 µM (inactive). Also, the GI50 with SR was 17 µM (inactive); in the experiment with UACC-257, 19.7 µM (inactive).

In the case of `O=C(c1ccc(Cl)c(Cl)c1)N(Cc1cccnc1)C(=S)N(Cc1cccnc1)C(=O)c1ccc(Cl)c(Cl)c1`, the GI50 in the experiment with ACHN was 18.8 µM (inactive); with BT-549, 22.9 µM (inactive); with CAKI-1, 31.6 µM (inactive); in the experiment on CCRF-CEM it was 94 µM (inactive); in the experiment on COLO 205 it was 15.6 µM (inactive); in the experiment with DU-145, 33.2 µM (inactive). Moreover, the GI50 in the experiment on HCC 2998 is 20.5 µM (inactive); with HCT-116 it was 25.2 µM (inactive); in the experiment on HOP-62, 27.4 µM (inactive); in the experiment with Hs-578T, 40.6 µM (inactive); in the experiment with LOX IMVI it was 30.7 µM (inactive); with M14 it was 21.2 µM (inactive). Also, the GI50 in the experiment on MDA-N is 23.9 µM (inactive); in the experiment with MOLT-4, 37.3 µM (inactive); in the experiment with NCI-H460 it was 44.7 µM (inactive); in the experiment with OVCAR-4, 25.8 µM (inactive); with OVCAR-5, 29.2 µM (inactive); in the experiment on SF-268 it was 36.1 µM (inactive). Besides, the GI50 is 17.5 µM (inactive) with SR and 24.9 µM (inactive) in the experiment on UACC-257.

Take `O=C1CC(c2ccco2)C2(C(=O)NC(=O)NC2=O)C(c2ccco2)C1` (stereo not given): the GI50 with ACHN, in the experiment with BT-549, in the experiment with CAKI-1, in the experiment on CCRF-CEM, with COLO 205 and in the experiment on DU-145 was > 75 µM (inactive) in each case. In addition, the GI50 in the experiment with HCC 2998, in the experiment with HCT-116, in the experiment on HOP-62, with Hs-578T, in the experiment with LOX IMVI and with M14 was > 75 µM (inactive) throughout. In addition, the GI50 in the experiment on MDA-N, in the experiment with MOLT-4, in the experiment with NCI-H460, in the experiment with OVCAR-4, in the experiment on OVCAR-5 and with SF-268 was > 75 µM (inactive) in each case. The GI50 with SR and in the experiment with UACC-257 was > 75 µM (inactive) in each case.

Consider `C/C(=N\NC(=S)NC(C)C)c1nc2cccnc2[nH]1`, for which the GI50 with ACHN is 21.9 µM (inactive); in the experiment with BT-549 it was 15.5 µM (inactive); with CAKI-1, 18.2 µM (inactive); in the experiment on CCRF-CEM, 2.88 µM (inactive); in the experiment on COLO 205 it was 11 µM (inactive); with DU-145, 51.1 µM (inactive). In addition, the GI50 with HCC 2998 was 19.4 µM (inactive); in the experiment with HCT-116 it was 11.3 µM (inactive); in the experiment on HOP-62, 18 µM (inactive); with Hs-578T, 23.9 µM (inactive); in the experiment on LOX IMVI it was 30.2 µM (inactive); in the experiment with M14 it was 57.9 µM (inactive). Besides, the GI50 is > 100 µM (inactive) with MDA-N; 9.95 µM (inactive) in the experiment with MOLT-4; 14 µM (inactive) with NCI-H460; 6.15 µM (inactive) with OVCAR-4; 28.8 µM (inactive) in the experiment on OVCAR-5; 14.8 µM (inactive) with SF-268. For the same compound, the GI50 with SR is 11.7 µM (inactive); in the experiment on UACC-257, 34.6 µM (inactive).

On to `CC1(C)C2C=C(CCN3CCOCC3)CC1C2` (stereo not given), for which the GI50 with ACHN, in the experiment with BT-549, with CAKI-1, in the experiment on CCRF-CEM, in the experiment on COLO 205 and in the experiment on DU-145 was > 100 µM (inactive) in each case. Moreover, the GI50 in the experiment on HCC 2998, in the experiment with HCT-116, in the experiment with HOP-62, in the experiment with Hs-578T, with LOX IMVI and in the experiment on M14 was > 100 µM (inactive) throughout. The GI50 with MDA-N, in the experiment with MOLT-4, with NCI-H460, with OVCAR-4, with OVCAR-5 and in the experiment with SF-268 was > 100 µM (inactive) throughout. The GI50 in the experiment on SR and in the experiment with UACC-257 was > 100 µM (inactive) each time.

On to `COC(=O)[C@]12CCC(=O)N1[C@H](C(=O)O)Cc1c2[nH]c2ccccc12`, for which the GI50 with ACHN, with BT-549, in the experiment with CAKI-1, in the experiment with CCRF-CEM, in the experiment with COLO 205 and in the experiment with DU-145 was > 100 µM (inactive) each time. Moreover, the GI50 with HCC 2998, with HCT-116, in the experiment on HOP-62, in the experiment with Hs-578T, in the experiment on LOX IMVI and in the experiment on M14 was > 100 µM (inactive) each time. Moreover, the GI50 in the experiment on MDA-N, with MOLT-4, in the experiment on NCI-H460, in the experiment on OVCAR-4, in the experiment with OVCAR-5 and with SF-268 was > 100 µM (inactive) each time. Further, the GI50 with SR and with UACC-257 was > 100 µM (inactive) each time.

As for `C[C@H]1C=C2[C@@H]3CC(C)(C(=O)O)CC[C@]3(C)CC[C@]2(C)[C@]2(C)CC[C@H]3C(C)(C)[C@@H](OC(=O)c4cccc5c(=O)c6ccccc6[nH]c45)CC[C@]3(C)[C@@H]12` (stereo not given in full), the GI50 was 67.3 µM (inactive) in the experiment with ACHN; 47.8 µM (inactive) with BT-549; > 100 µM (inactive) in the experiment with CAKI-1; 38 µM (inactive) with CCRF-CEM; 58.1 µM (inactive) with COLO 205; 67.5 µM (inactive) with DU-145. The GI50 in the experiment with HCC 2998 was 88.7 µM (inactive); with HCT-116, 89.7 µM (inactive); in the experiment on HOP-62 it was > 100 µM (inactive); in the experiment on Hs-578T, > 100 µM (inactive); in the experiment on LOX IMVI, 57 µM (inactive); in the experiment on M14 it was 61 µM (inactive). In addition, the GI50 is 59.8 µM (inactive) in the experiment with MDA-N; > 100 µM (inactive) with MOLT-4; 41 µM (inactive) in the experiment on NCI-H460; 80.4 µM (inactive) in the experiment with OVCAR-4; > 100 µM (inactive) in the experiment on OVCAR-5; > 100 µM (inactive) with SF-268. Further, the GI50 in the experiment on SR is 66.8 µM (inactive); in the experiment on UACC-257 it was 29.7 µM (inactive).

For the compound `OC(CCN1CCN(CCOC(c2ccc(F)cc2)c2ccc(F)cc2)CC1)c1ccc(Br)cc1` (stereo not given), the GI50 is 4.76 µM (inactive) with ACHN; 5.83 µM (inactive) in the experiment on BT-549; 2.02 µM (inactive) in the experiment with CAKI-1; 2.77 µM (inactive) in the experiment on CCRF-CEM; 1.85 µM (inactive) with COLO 205; 6.21 µM (inactive) with DU-145. Further, the GI50 with HCC 2998 is 1.97 µM (inactive); with HCT-116, 2.8 µM (inactive); in the experiment on HOP-62 it was 6.12 µM (inactive); with Hs-578T, 4.89 µM (inactive); in the experiment on LOX IMVI, 2.04 µM (inactive); in the experiment on M14 it was 1.96 µM (inactive). For the same compound, the GI50 is 2.61 µM (inactive) in the experiment on MDA-N; 2.4 µM (inactive) in the experiment with MOLT-4; 2.42 µM (inactive) in the experiment on NCI-H460; 4.01 µM (inactive) in the experiment on OVCAR-4; 15.5 µM (inactive) with OVCAR-5; 4.76 µM (inactive) with SF-268. Also, the GI50 in the experiment on SR is 2.34 µM (inactive); with UACC-257 it was 1.96 µM (inactive).

For `CCn1sc2ccccc2c1=O`, the GI50 in the experiment with ACHN is 7.62 µM (inactive); in the experiment with BT-549, 11.1 µM (inactive); in the experiment on CAKI-1 it was 3.43 µM (inactive); in the experiment with CCRF-CEM it was 1.87 µM (inactive); in the experiment with COLO 205, 9.55 µM (inactive); with DU-145 it was 20.4 µM (inactive). The GI50 in the experiment with HCC 2998 is 17.4 µM (inactive); with HCT-116 it was 14.8 µM (inactive); with HOP-62 it was 14.7 µM (inactive); in the experiment on Hs-578T it was 16.4 µM (inactive); in the experiment on LOX IMVI, 2.61 µM (inactive); with M14, 4.97 µM (inactive). Besides, the GI50 in the experiment on MDA-N is 4.05 µM (inactive); with MOLT-4 it was 3.78 µM (inactive); in the experiment with NCI-H460, 32.1 µM (inactive); in the experiment with OVCAR-4, 7.1 µM (inactive); in the experiment on OVCAR-5, 9.1 µM (inactive); in the experiment with SF-268 it was 17.3 µM (inactive). The GI50 in the experiment on SR was 1.95 µM (inactive); with UACC-257 it was 14.8 µM (inactive).

In the case of `Cc1cc(=O)oc2cc(OC(=O)N(CCCl)CCCl)ccc12`, the GI50 is > 100 µM (inactive) in the experiment on ACHN; 44.7 µM (inactive) in the experiment with BT-549; > 100 µM (inactive) in the experiment on CAKI-1; 90.4 µM (inactive) in the experiment with CCRF-CEM; > 100 µM (inactive) with COLO 205; > 100 µM (inactive) in the experiment on DU-145. Moreover, the GI50 is > 100 µM (inactive) in the experiment with HCC 2998; > 100 µM (inactive) in the experiment with HCT-116; > 100 µM (inactive) in the experiment with HOP-62; > 100 µM (inactive) in the experiment on Hs-578T; 59.8 µM (inactive) with LOX IMVI; > 100 µM (inactive) in the experiment on M14. The GI50 is > 100 µM (inactive) in the experiment on MDA-N; 82.6 µM (inactive) in the experiment with MOLT-4; > 100 µM (inactive) in the experiment on NCI-H460; > 100 µM (inactive) in the experiment on OVCAR-4; > 100 µM (inactive) in the experiment with OVCAR-5; > 100 µM (inactive) in the experiment on SF-268. Further, the GI50 was 63.2 µM (inactive) with SR and > 100 µM (inactive) in the experiment with UACC-257.
